# Laboratory results from article PMC12373846, “Hemoglobin as a pseudoperoxidase and drug target for oxidative stress-related diseases” (Signal Transduction and Targeted Therapy, 2025).
# Tests used:
# Test in all cases: KINOMEscan
# Type in all cases: binding
# Conditions in all cases: 10000 nM; read-out: Percent Control
# [1] = target: T1, KIT(D816V) (Homo sapiens, UniProt P10721, D816V)
# T1 construct: purchased DiscoverX KINOMEscan scanEDGE; Eurofins Cerep SafetyScreen87
# Experimental: (§1) The possibility of KDS12025 on kinase off-target, the KINOMEscan panel of scanEDGE assay was conducted in DiscoverX (CA, USA) using a site-directed competition binding with the test compounds. The assay results are given in Supplementary Table 4 and experimental information is available on the DiscoverX web page (www.discoverx.com). Moreover, the Delta SafetyScreen87 panel assay was conducted in Eurofins Discovery (Cerep, France). The assay results are given in Supplementary Table 5 and experimental information is available on the DiscoverX web page (https://www.eurofinsdiscoveryservices.com).
# [2] = target: T2, JAK2(JH1domain-catalytic) (Homo sapiens, UniProt O60674)
# T2 construct: JAK2(JH1domain-catalytic); purchased DiscoverX KINOMEscan scanEDGE; Eurofins Cerep SafetyScreen87
# T2 sequence (O60674 840-1132 limits assumed): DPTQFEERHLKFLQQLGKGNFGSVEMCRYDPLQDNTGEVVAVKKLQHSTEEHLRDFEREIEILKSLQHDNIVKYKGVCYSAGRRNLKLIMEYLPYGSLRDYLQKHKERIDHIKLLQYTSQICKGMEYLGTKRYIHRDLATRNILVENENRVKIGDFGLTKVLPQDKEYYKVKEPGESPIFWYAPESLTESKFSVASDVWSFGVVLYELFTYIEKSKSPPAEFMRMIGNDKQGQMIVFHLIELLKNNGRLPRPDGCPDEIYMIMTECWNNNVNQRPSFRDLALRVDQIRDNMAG
# Experimental: as §1
# [3] = target: T3, MET (Homo sapiens, UniProt P08581)
# T3 construct: purchased DiscoverX KINOMEscan scanEDGE; Eurofins Cerep SafetyScreen87
# Experimental: as §1
# [4] = target: T4, ERK1 (Homo sapiens, UniProt P27361)
# T4 construct: purchased DiscoverX KINOMEscan scanEDGE; Eurofins Cerep SafetyScreen87
# Experimental: as §1
# [5] = target: T5, EGFR (Homo sapiens, UniProt P00533)
# T5 construct: purchased DiscoverX KINOMEscan scanEDGE; Eurofins Cerep SafetyScreen87
# Experimental: as §1
# [6] = target: T6, PCTK1 (Homo sapiens, UniProt Q00536)
# T6 construct: purchased DiscoverX KINOMEscan scanEDGE; Eurofins Cerep SafetyScreen87
# T6 sequence (Q00536 whole entry): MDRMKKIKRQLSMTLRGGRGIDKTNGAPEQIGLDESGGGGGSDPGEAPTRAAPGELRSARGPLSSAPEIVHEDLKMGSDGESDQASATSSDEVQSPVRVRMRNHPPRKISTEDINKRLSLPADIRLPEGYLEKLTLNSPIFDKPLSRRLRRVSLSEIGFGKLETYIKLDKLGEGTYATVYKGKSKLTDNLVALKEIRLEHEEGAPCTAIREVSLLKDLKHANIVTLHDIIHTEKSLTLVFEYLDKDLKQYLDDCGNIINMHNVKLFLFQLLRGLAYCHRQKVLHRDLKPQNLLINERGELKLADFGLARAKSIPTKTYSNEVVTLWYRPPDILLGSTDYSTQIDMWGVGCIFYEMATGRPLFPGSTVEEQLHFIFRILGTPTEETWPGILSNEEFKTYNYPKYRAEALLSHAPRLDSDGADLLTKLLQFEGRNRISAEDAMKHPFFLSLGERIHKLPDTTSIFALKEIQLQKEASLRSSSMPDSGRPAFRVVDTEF
# Experimental: as §1
# [7] = target: T7, ROCK2 (Homo sapiens, UniProt O75116)
# T7 construct: purchased DiscoverX KINOMEscan scanEDGE; Eurofins Cerep SafetyScreen87
# Experimental: as §1
# [8] = target: T8, SNARK (Homo sapiens, UniProt Q9H093)
# T8 construct: purchased DiscoverX KINOMEscan scanEDGE; Eurofins Cerep SafetyScreen87
# Experimental: as §1
# [9] = target: T9, IKK-alpha (Homo sapiens, UniProt O15111)
# T9 construct: purchased DiscoverX KINOMEscan scanEDGE; Eurofins Cerep SafetyScreen87
# Experimental: as §1
# [10] = target: T10, GSK3B (Homo sapiens, UniProt P49841)
# T10 construct: purchased DiscoverX KINOMEscan scanEDGE; Eurofins Cerep SafetyScreen87
# T10 sequence (P49841 whole entry): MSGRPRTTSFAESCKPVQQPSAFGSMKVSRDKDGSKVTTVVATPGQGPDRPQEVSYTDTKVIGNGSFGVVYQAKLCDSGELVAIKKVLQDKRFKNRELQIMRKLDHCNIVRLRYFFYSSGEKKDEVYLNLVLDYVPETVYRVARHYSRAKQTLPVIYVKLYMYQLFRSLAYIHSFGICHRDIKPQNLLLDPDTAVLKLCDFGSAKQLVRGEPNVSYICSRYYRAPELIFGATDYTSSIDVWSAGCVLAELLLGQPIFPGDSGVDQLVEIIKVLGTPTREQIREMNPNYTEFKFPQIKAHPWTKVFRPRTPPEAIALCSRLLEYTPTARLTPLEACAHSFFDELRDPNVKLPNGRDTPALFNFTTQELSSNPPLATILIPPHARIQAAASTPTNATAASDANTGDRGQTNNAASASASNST
# Experimental: as §1
# [11] = target: T11, JAK3(JH1domain-catalytic) (Homo sapiens, UniProt P52333)
# T11 construct: JAK3(JH1domain-catalytic); purchased DiscoverX KINOMEscan scanEDGE; Eurofins Cerep SafetyScreen87
# Experimental: as §1
# [12] = target: T12, PIK3C2B (Homo sapiens, UniProt O00750)
# T12 construct: purchased DiscoverX KINOMEscan scanEDGE; Eurofins Cerep SafetyScreen87
# Experimental: as §1
# [13] = target: T13, CDK7 (Homo sapiens, UniProt P50613)
# T13 construct: purchased DiscoverX KINOMEscan scanEDGE; Eurofins Cerep SafetyScreen87
# Experimental: as §1
# [14] = target: T14, p38-alpha (Homo sapiens, UniProt Q16539)
# T14 construct: purchased DiscoverX KINOMEscan scanEDGE; Eurofins Cerep SafetyScreen87
# Experimental: as §1
# [15] = target: T15, RSK2(Kin.Dom.1-N-terminal) (Homo sapiens, UniProt P51812)
# T15 construct: RSK2(Kin.Dom.1-N-terminal); purchased DiscoverX KINOMEscan scanEDGE; Eurofins Cerep SafetyScreen87
# Experimental: as §1
# [16] = target: T16, PLK4 (Homo sapiens, UniProt O00444)
# T16 construct: purchased DiscoverX KINOMEscan scanEDGE; Eurofins Cerep SafetyScreen87
# T16 sequence (O00444 whole entry): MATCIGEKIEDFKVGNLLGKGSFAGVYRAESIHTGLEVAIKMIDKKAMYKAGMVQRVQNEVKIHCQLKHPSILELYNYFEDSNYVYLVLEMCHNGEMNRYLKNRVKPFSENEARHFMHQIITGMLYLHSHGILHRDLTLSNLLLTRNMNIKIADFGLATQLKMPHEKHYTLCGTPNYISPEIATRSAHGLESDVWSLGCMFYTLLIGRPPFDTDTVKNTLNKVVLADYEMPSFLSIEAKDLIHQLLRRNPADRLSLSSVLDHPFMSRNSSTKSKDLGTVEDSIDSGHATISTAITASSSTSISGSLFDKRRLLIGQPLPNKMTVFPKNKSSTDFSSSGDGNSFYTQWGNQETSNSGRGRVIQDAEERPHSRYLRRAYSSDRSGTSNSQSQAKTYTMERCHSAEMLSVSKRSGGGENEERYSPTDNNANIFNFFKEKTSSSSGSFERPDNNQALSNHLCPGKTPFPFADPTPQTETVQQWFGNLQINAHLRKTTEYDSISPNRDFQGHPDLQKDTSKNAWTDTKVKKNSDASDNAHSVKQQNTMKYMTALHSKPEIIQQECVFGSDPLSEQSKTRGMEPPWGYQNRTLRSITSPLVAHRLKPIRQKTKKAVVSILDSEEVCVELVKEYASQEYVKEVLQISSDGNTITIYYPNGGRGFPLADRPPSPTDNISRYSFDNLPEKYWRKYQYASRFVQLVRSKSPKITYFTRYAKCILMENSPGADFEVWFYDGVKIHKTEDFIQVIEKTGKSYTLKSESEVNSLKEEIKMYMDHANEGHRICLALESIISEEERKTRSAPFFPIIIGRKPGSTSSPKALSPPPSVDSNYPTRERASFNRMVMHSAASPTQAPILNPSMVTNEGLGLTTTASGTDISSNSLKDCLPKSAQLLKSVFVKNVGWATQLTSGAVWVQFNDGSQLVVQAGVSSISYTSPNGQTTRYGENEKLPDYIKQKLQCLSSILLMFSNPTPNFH
# Experimental: as §1
# [17] = target: T17, RIOK2 (Homo sapiens, UniProt Q9BVS4)
# T17 construct: purchased DiscoverX KINOMEscan scanEDGE; Eurofins Cerep SafetyScreen87
# Experimental: as §1
# [18] = target: T18, AXL (Homo sapiens, UniProt P30530)
# T18 construct: purchased DiscoverX KINOMEscan scanEDGE; Eurofins Cerep SafetyScreen87
# Experimental: as §1
# [19] = target: T19, PAK4 (Homo sapiens, UniProt O96013)
# T19 construct: purchased DiscoverX KINOMEscan scanEDGE; Eurofins Cerep SafetyScreen87
# Experimental: as §1
# [20] = target: T20, KIT(V559D,T670I) (Homo sapiens, UniProt P10721, T670I/V559D)
# T20 construct: purchased DiscoverX KINOMEscan scanEDGE; Eurofins Cerep SafetyScreen87
# Experimental: as §1
# [21] = target: T21, FLT3 (Homo sapiens, UniProt P36888)
# T21 construct: purchased DiscoverX KINOMEscan scanEDGE; Eurofins Cerep SafetyScreen87
# Experimental: as §1
# [22] = target: T22, AURKB (Homo sapiens, UniProt Q96GD4)
# T22 construct: purchased DiscoverX KINOMEscan scanEDGE; Eurofins Cerep SafetyScreen87
# Experimental: as §1
# [23] = target: T23, IGF1R (Homo sapiens, UniProt P08069)
# T23 construct: purchased DiscoverX KINOMEscan scanEDGE; Eurofins Cerep SafetyScreen87
# T23 sequence (P08069 31-1367): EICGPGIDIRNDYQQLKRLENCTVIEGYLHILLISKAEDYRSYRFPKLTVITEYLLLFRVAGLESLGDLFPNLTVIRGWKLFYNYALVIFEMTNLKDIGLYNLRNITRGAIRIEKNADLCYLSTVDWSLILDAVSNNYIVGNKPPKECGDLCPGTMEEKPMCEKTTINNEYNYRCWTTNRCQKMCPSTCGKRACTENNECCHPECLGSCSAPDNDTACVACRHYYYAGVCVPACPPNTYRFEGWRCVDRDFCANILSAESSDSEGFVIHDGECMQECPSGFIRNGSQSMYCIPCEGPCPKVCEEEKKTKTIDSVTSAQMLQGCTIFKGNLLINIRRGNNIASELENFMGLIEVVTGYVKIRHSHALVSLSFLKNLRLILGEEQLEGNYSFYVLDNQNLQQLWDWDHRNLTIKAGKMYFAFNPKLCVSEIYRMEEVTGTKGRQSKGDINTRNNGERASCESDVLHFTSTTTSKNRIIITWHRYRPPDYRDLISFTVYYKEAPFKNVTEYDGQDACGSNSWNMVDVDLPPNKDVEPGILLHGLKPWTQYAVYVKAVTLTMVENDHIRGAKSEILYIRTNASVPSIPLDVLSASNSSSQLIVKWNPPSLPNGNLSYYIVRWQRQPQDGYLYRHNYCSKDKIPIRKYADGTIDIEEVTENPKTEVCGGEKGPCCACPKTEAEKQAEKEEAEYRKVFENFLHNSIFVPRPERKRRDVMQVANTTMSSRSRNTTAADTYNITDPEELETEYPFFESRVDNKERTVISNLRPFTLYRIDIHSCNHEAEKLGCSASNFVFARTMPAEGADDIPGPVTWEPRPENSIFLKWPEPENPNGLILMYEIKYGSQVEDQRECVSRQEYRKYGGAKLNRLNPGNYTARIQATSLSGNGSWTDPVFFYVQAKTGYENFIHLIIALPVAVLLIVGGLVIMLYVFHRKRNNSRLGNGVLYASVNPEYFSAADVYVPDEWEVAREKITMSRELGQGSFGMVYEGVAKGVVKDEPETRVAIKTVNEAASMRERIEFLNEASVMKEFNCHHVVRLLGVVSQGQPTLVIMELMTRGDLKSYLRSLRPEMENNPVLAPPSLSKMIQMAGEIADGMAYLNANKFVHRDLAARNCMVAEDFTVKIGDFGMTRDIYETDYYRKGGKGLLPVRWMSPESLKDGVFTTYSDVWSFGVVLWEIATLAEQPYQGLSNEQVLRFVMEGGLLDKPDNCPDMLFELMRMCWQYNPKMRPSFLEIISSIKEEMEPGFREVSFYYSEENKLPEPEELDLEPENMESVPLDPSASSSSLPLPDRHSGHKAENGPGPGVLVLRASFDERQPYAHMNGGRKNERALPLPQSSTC
# Experimental: as §1
# [24] = target: T24, MLK1 (Homo sapiens, UniProt P80192)
# T24 construct: purchased DiscoverX KINOMEscan scanEDGE; Eurofins Cerep SafetyScreen87
# Experimental: as §1
# [25] = target: T25, PRKCE (Homo sapiens, UniProt Q02156)
# T25 construct: purchased DiscoverX KINOMEscan scanEDGE; Eurofins Cerep SafetyScreen87
# Experimental: as §1
# [26] = target: T26, ALK (Homo sapiens, UniProt Q9UM73)
# T26 construct: purchased DiscoverX KINOMEscan scanEDGE; Eurofins Cerep SafetyScreen87
# Experimental: as §1
# [27] = target: T27, PDPK1 (Homo sapiens, UniProt O15530)
# T27 construct: purchased DiscoverX KINOMEscan scanEDGE; Eurofins Cerep SafetyScreen87
# Experimental: as §1
# [28] = target: T28, PDGFRA (Homo sapiens, UniProt P16234)
# T28 construct: purchased DiscoverX KINOMEscan scanEDGE; Eurofins Cerep SafetyScreen87
# Experimental: as §1
# [29] = target: T29, LKB1 (Homo sapiens, UniProt Q15831)
# T29 construct: purchased DiscoverX KINOMEscan scanEDGE; Eurofins Cerep SafetyScreen87
# Experimental: as §1
# [30] = target: T30, AURKA (Homo sapiens, UniProt O14965)
# T30 construct: purchased DiscoverX KINOMEscan scanEDGE; Eurofins Cerep SafetyScreen87
# T30 sequence (O14965 whole entry): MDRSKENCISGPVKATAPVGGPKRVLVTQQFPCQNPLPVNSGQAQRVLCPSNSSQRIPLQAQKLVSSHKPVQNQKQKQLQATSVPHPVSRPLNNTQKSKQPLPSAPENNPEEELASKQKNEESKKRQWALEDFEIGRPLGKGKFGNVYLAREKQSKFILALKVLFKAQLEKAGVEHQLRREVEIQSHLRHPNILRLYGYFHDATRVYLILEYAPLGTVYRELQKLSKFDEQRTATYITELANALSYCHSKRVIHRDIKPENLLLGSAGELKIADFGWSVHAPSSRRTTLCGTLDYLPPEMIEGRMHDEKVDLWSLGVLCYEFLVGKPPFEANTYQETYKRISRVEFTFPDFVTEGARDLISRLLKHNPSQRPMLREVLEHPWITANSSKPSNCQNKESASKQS
# Experimental: as §1
# [31] = target: T31, PAK1 (Homo sapiens, UniProt Q13153)
# T31 construct: purchased DiscoverX KINOMEscan scanEDGE; Eurofins Cerep SafetyScreen87
# Experimental: as §1
# [32] = target: T32, MAP3K4 (Homo sapiens, UniProt Q9Y6R4)
# T32 construct: purchased DiscoverX KINOMEscan scanEDGE; Eurofins Cerep SafetyScreen87
# Experimental: as §1
# [33] = target: T33, PLK1 (Homo sapiens, UniProt P53350)
# T33 construct: purchased DiscoverX KINOMEscan scanEDGE; Eurofins Cerep SafetyScreen87
# T33 sequence (P53350 whole entry): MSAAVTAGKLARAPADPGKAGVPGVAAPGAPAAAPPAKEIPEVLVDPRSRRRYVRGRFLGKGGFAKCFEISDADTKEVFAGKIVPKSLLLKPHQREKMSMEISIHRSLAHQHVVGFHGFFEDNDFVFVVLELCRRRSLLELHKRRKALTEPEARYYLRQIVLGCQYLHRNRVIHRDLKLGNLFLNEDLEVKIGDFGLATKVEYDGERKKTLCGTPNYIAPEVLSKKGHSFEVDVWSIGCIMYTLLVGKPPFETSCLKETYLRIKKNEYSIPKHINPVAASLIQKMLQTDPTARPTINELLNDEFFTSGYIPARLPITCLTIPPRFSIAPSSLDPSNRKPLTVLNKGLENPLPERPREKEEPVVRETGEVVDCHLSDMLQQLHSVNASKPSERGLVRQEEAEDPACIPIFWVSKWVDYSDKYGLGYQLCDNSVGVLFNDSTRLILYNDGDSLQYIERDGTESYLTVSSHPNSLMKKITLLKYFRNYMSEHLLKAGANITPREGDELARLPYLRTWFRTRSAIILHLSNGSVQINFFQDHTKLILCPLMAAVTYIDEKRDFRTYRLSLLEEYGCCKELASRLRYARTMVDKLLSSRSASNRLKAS
# Experimental: as §1
# [34] = target: T34, PIM2 (Homo sapiens, UniProt Q9P1W9)
# T34 construct: purchased DiscoverX KINOMEscan scanEDGE; Eurofins Cerep SafetyScreen87
# T34 sequence (Q9P1W9 whole entry): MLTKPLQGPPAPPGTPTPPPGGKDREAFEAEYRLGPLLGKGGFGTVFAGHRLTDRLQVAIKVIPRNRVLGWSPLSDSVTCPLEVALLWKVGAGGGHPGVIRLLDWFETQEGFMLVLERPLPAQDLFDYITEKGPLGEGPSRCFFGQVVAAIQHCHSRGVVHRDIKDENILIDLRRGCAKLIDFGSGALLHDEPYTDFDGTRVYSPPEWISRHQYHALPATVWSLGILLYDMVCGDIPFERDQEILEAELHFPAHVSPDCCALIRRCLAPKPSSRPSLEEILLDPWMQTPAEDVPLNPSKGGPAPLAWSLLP
# Experimental: as §1
# [35] = target: T35, IKK-beta (Homo sapiens, UniProt O14920)
# T35 construct: purchased DiscoverX KINOMEscan scanEDGE; Eurofins Cerep SafetyScreen87
# Experimental: as §1
# [36] = target: T36, MAPKAPK2 (Homo sapiens, UniProt P49137)
# T36 construct: purchased DiscoverX KINOMEscan scanEDGE; Eurofins Cerep SafetyScreen87
# Experimental: as §1
# [37] = target: T37, BMPR2 (Homo sapiens, UniProt Q13873)
# T37 construct: purchased DiscoverX KINOMEscan scanEDGE; Eurofins Cerep SafetyScreen87
# Experimental: as §1
# [38] = target: T38, AKT2 (Homo sapiens, UniProt P31751)
# T38 construct: purchased DiscoverX KINOMEscan scanEDGE; Eurofins Cerep SafetyScreen87
# Experimental: as §1
smiles,measurement,setting,value
"CNc1ccc(NCCc2ccccc2OC)cc1.Cl [KDS12025, N^1-(2-methoxyphenethyl)-N^4-methylbenzene-1,4-diamine hydrochloride salt]",remaining binding at 10 µM,[1],91%
same,remaining binding at 10 µM,[2],100%
same,remaining binding at 10 µM,[3],82%
same,remaining binding at 10 µM,[4],83%
same,remaining binding at 10 µM,[5],48%
same,remaining binding at 10 µM,[6],94%
same,remaining binding at 10 µM,[7],85%
same,remaining binding at 10 µM,[8],100%
same,remaining binding at 10 µM,[9],100%
same,remaining binding at 10 µM,[10],95%
same,remaining binding at 10 µM,[11],76%
same,remaining binding at 10 µM,[12],91%
same,remaining binding at 10 µM,[13],89%
same,remaining binding at 10 µM,[14],100%
same,remaining binding at 10 µM,[15],84%
same,remaining binding at 10 µM,[16],77%
same,remaining binding at 10 µM,[17],98%
same,remaining binding at 10 µM,[18],95%
same,remaining binding at 10 µM,[19],100%
same,remaining binding at 10 µM,[20],94%
same,remaining binding at 10 µM,[21],100%
same,remaining binding at 10 µM,[22],78%
same,remaining binding at 10 µM,[23],84%
same,remaining binding at 10 µM,[24],79%
same,remaining binding at 10 µM,[25],100%
same,remaining binding at 10 µM,[26],98%
same,remaining binding at 10 µM,[27],56%
same,remaining binding at 10 µM,[28],85%
same,remaining binding at 10 µM,[29],80%
same,remaining binding at 10 µM,[30],86%
same,remaining binding at 10 µM,[31],75%
same,remaining binding at 10 µM,[32],100%
same,remaining binding at 10 µM,[33],100%
same,remaining binding at 10 µM,[34],64%
same,remaining binding at 10 µM,[35],100%
same,remaining binding at 10 µM,[36],75%
same,remaining binding at 10 µM,[37],92%
same,remaining binding at 10 µM,[38],94%
